Assay results taken from ChEMBL document CHEMBL3112567, “Novel GlyT1 inhibitor chemotypes by scaffold hopping. Part 1: development of a potent and CNS penetrant [3.1.0]-based lead” (Bioorg Med Chem Lett, 2014).
Blank lines part the entries; values can stand above or below the compound they belong to. The source made the active and inactive calls. The calls are words filed in the database; no cut-off is given here.

How the values were obtained:
[1] = target: T1, Sodium- and chloride-dependent glycine transporter 1 (Homo sapiens) (UniProt P48067); assay: Competitive inhibition of GlyT1 (unknown origin) at 40 nM by Eadie-Hofstee plot analysis in presence of [14C]-glycine
T1 sequence (whole entry): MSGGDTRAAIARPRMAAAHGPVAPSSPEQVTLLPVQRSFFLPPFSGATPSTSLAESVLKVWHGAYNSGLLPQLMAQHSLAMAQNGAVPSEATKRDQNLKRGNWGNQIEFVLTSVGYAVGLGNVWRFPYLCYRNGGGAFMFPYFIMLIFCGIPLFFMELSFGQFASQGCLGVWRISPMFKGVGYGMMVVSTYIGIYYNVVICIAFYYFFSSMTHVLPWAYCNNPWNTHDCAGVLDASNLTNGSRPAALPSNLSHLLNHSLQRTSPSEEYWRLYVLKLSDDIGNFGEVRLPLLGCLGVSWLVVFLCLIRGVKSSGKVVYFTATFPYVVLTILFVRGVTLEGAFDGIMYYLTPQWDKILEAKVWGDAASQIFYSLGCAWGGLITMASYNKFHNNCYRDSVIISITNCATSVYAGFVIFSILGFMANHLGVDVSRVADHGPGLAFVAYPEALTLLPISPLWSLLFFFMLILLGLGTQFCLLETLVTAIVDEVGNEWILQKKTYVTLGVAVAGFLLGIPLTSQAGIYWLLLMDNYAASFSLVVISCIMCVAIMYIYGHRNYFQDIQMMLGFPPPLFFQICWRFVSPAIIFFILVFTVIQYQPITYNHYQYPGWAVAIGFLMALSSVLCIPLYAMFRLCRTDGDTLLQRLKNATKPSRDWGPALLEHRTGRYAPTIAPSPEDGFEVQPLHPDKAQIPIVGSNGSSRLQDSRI

[2] = target: T2, Sodium- and chloride-dependent glycine transporter 1 (Homo sapiens, UniProt P48067); assay: Inhibition of GlyT1 (unknown origin) assessed as inhibition of [14C]glycine uptake
T2 sequence (P48067 whole entry): T1 sequence (whole entry)

[3] = Partitioning coefficient, ratio of drug uptake from rat brain to plasma at 10 mg/kg, po; type: ADME, organism-based; set-up: dose 10 mg/kg, route oral
Plasma [4] = assay: (§1) Fraction unbound in human plasma; type: ADME, cell-free
Cytochrome P450 3A4 = Cytochrome P450 3A4 (Homo sapiens, UniProt P08684); assay: Inhibition of CYP3A4 (unknown origin); type: ADME
Rattus norvegicus [5] = assay: Toxicity in rat schizophrenia model assessed as effect on basal startle amplitude at 30 mg/kg, po; type: organism-based; set-up: dose 30 mg/kg, route oral; details: in vivo
Rattus norvegicus [6] = assay: Antischizophrenic activity in rat schizophrenia model assessed as inhibition of […] to […] dB intensity-induced prepulse at 30 mg/kg, po; type: functional, organism-based; set-up: dose 30 mg/kg
Cytochrome P450 2C9 = Cytochrome P450 2C9 (Homo sapiens, UniProt P11712); assay: Inhibition of CYP2C9 (unknown origin); type: ADME
[7] = target: T3, Sodium- and chloride-dependent glycine transporter 2 (Homo sapiens, UniProt Q9Y345); assay: Inhibition of GlyT2 (unknown origin)
T3 sequence (Q9Y345 whole entry): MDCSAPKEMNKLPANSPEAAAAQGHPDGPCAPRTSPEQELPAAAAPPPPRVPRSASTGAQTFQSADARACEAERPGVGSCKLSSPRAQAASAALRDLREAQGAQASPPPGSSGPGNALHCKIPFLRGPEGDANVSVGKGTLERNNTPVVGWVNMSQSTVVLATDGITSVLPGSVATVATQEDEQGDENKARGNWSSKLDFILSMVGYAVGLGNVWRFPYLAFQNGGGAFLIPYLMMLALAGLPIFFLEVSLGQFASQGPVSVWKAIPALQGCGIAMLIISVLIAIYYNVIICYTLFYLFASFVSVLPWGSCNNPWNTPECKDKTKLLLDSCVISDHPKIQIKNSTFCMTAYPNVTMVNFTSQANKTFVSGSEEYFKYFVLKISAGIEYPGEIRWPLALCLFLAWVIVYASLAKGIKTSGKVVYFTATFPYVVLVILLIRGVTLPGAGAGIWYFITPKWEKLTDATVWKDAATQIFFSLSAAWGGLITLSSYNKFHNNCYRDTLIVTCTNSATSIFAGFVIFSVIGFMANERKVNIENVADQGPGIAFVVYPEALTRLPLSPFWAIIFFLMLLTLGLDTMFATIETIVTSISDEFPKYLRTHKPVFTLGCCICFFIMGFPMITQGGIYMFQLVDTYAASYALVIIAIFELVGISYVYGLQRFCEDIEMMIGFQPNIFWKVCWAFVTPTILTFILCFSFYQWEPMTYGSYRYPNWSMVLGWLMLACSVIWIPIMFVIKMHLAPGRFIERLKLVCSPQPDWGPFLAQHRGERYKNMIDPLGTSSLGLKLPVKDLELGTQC

[8] = as §1; type: ADME, cell-free
Plasma [9] = assay: AUC (0 to 6 hrs) in rat plasma at 10 mg/kg, sc; type: ADME, organism-based; set-up: time < 6 hr, dose 10 mg/kg, route subcutaneous; details: in vivo
Cytochrome P450 2D6 = Cytochrome P450 2D6 (Homo sapiens, UniProt P10635); assay: Inhibition of CYP2D6 (unknown origin); type: ADME
Plasma [10] = assay: Fraction unbound in rat plasma; type: ADME, cell-free
Plasma [11] = assay: Metabolic stability in rat plasma after 4 hrs; type: ADME, cell-free
[12] = Clearance in rat at 0.5 mg/kg, iv; type: ADME, organism-based; set-up: dose 0.5 mg/kg, route intravenous; details: in vivo
[13] = AUC (0 to 6 hrs) in rat brain at 10 mg/kg, sc; type: ADME, organism-based; set-up: time < 6 hr, dose 10 mg/kg, route subcutaneous
[14] = Partitioning coefficient, ratio of drug uptake from rat brain to plasma at 10 mg/kg, sc; type: ADME, organism-based; set-up: dose 10 mg/kg, route subcutaneous
[15] = AUC (0 to 6 hrs) in rat brain at 10 mg/kg, po; type: ADME, organism-based; set-up: time < 6 hr, dose 10 mg/kg, route oral
[16] = Half life in rat at 0.5 mg/kg, iv; type: ADME, organism-based; set-up: dose 0.5 mg/kg, route intravenous; details: in vivo
Plasma [17] = assay: AUC (0 to 6 hrs) in rat plasma at 10 mg/kg, po; type: ADME, organism-based; set-up: time < 6 hr, dose 10 mg/kg, route oral; details: in vivo
Cytochrome P450 1A2 = target: T4, Cytochrome P450 1A2 (Homo sapiens, UniProt P05177); assay: Inhibition of CYP1A2 (unknown origin); type: ADME
T4 sequence (P05177 whole entry): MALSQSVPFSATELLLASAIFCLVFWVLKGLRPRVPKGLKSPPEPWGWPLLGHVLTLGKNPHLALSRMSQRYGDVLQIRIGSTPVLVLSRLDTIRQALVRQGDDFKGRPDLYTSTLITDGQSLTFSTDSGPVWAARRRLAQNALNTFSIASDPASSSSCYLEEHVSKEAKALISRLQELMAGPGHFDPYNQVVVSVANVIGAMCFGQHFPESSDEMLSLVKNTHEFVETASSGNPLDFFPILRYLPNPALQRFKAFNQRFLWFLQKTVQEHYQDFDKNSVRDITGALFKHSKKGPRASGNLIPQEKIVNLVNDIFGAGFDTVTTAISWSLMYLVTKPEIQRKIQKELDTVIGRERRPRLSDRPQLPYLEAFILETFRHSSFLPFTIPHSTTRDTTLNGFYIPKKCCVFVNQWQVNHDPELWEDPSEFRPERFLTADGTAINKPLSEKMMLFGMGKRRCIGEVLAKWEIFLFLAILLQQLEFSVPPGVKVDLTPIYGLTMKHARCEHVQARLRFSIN

Sequence of Cytochrome P450 3A4 (P08684 whole entry): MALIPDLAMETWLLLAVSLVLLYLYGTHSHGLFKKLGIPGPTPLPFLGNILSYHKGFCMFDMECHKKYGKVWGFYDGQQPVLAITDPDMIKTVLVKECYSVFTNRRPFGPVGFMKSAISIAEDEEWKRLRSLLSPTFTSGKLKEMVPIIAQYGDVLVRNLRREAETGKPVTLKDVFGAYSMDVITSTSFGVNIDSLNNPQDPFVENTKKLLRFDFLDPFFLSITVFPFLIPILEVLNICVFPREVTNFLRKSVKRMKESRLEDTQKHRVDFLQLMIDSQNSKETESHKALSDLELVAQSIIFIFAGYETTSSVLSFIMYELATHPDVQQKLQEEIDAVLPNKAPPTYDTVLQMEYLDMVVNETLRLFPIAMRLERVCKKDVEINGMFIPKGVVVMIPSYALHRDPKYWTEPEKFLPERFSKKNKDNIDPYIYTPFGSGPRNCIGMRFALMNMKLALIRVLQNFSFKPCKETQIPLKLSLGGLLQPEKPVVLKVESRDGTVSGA
Sequence of Cytochrome P450 2D6 (P10635 whole entry): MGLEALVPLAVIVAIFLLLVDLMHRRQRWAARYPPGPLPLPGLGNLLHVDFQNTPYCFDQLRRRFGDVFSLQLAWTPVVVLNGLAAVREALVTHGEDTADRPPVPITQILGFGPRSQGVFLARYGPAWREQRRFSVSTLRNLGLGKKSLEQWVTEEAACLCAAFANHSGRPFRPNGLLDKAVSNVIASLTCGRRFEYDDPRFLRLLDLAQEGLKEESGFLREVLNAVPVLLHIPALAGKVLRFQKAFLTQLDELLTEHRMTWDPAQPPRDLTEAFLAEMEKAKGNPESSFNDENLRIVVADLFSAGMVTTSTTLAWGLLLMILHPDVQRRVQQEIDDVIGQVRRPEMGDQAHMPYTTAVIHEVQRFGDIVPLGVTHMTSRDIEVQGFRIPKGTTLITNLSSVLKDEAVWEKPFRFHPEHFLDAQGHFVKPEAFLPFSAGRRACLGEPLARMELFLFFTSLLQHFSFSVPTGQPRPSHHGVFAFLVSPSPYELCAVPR
Sequence of Cytochrome P450 2C9 (P11712 whole entry): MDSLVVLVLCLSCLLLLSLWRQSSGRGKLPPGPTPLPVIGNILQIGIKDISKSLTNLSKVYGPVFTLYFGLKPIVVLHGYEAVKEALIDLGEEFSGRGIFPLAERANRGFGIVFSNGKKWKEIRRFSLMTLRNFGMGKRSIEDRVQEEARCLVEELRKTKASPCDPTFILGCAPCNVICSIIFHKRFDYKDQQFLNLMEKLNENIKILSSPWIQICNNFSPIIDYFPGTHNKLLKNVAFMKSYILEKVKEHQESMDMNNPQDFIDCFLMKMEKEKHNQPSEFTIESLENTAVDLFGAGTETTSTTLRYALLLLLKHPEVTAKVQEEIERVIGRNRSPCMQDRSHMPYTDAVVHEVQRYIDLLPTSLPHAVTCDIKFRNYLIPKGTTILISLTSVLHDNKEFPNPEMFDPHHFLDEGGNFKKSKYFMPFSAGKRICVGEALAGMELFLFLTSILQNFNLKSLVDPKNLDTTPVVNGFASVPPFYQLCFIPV

inhibition [1]: Active
IC50 [2]: 28 nM
Kp ([3]; brain): 0.5
Fu (Plasma [4]): 8%
SMILES: Cn1cnc(S(=O)(=O)N2C[C@@H]3[C@H](C2)[C@@]3(CNC(=O)c2c(Cl)cccc2Cl)CC2CC2)c1

IC50 (Cytochrome P450 3A4): > 10 µM
IC50 (Cytochrome P450 2C9): > 10 µM
SMILES: CCS(=O)(=O)N1CCC(CNC(=O)c2ccc(Cl)cc2Cl)(CC2CC2)CC1
Activity (Rattus norvegicus [5]): Non-toxic
inhibition (Rattus norvegicus [6]): Active

IC50 [2]: 100 nM
Kp ([3]; brain): 0.3
Fu (Plasma [4]): 2%
SMILES: Cn1cnc(S(=O)(=O)N2C[C@@H]3[C@H](C2)[C@@]3(CNC(=O)c2cc(Cl)cc(Cl)c2)CC2CC2)c1

IC50 [7]: > 30 µM
IC50 [2]: 360 nM
SMILES: CCCS(=O)(=O)N1C[C@@H]2[C@H](C1)[C@@]2(CNC(=O)c1ccc(Cl)cc1Cl)CC1CC1

SMILES: CCS(=O)(=O)N1C[C@@H]2[C@H](C1)[C@@]2(CNC(=O)c1ccc(Cl)cc1Cl)CC1CC1
IC50 [7]: > 30 µM
IC50 [2]: 1300 nM

IC50 (Cytochrome P450 3A4): > 10 µM
IC50 [2]: 2.4 nM
IC50 (Cytochrome P450 2C9): > 10 µM
SMILES: CCCS(=O)(=O)N1CCC(c2ccccc2)([C@H](C)NC(=O)c2ccc(Cl)cc2Cl)CC1

IC50 [7]: > 30 µM
IC50 [2]: 3400 nM
SMILES: CC(C)S(=O)(=O)N1C[C@@H]2[C@H](C1)[C@@]2(CNC(=O)c1ccc(Cl)cc1Cl)CC1CC1

IC50 [7]: > 30 µM
IC50 [2]: > 10000 nM
SMILES: O=C(NC[C@]1(CC2CC2)[C@@H]2CN(S(=O)(=O)c3ccccc3)C[C@@H]21)c1ccc(Cl)cc1Cl

SMILES: Cn1cnc(S(=O)(=O)N2C[C@@H]3[C@H](C2)[C@@]3(CNC(=O)c2ccc(Cl)c(Cl)c2)CC2CC2)c1
IC50 [2]: 82 nM
Kp ([3]; brain): 0.3
Fu (Plasma [4]): 2%

IC50 [2]: 32 nM
Kp ([3]; brain): 0.3
Fu (Plasma [4]): 3%
SMILES: Cn1cnc(S(=O)(=O)N2C[C@@H]3[C@H](C2)[C@@]3(CNC(=O)c2ccc(Cl)cc2)CC2CC2)c1

IC50 [7]: > 30 µM
IC50 [2]: 1000 nM
SMILES: O=C(NC[C@]1(CC2CC2)[C@@H]2CN(S(=O)(=O)c3ccccn3)C[C@@H]21)c1ccc(Cl)cc1Cl

IC50 [7]: > 30 µM
IC50 [2]: 2900 nM
SMILES: CC(C)CS(=O)(=O)N1C[C@@H]2[C@H](C1)[C@@]2(CNC(=O)c1ccc(Cl)cc1Cl)CC1CC1

Kp ([3]; brain and plasma, read-out: Kp): 0.3
fraction unbound [8]: 0.05
SMILES: Cn1cnc(S(=O)(=O)N2C[C@@H]3[C@H](C2)[C@@]3(CNC(=O)c2ccc(Cl)cc2Cl)CC2CC2)c1

SMILES: NCC(=O)O [GLYCINE]
IC50 [2]: 31600 nM

SMILES: Cn1cnc(S(=O)(=O)N2C[C@@H]3[C@H](C2)[C@@]3(CNC(=O)c2ccccc2C(F)(F)F)CC2CC2)c1
AUC (Plasma [9]): 976 nM·h
Activity (Rattus norvegicus [5]): Non-toxic
IC50 (Cytochrome P450 2D6): > 30 µM
inhibition (Rattus norvegicus [6]): Active
Fu (Plasma [10]): 44.8%
Stability (Plasma [11]): Stable
clearance [12]: 31 mL/min/kg
IC50 [2]: 5 nM
AUC(0-t) at 6 h [13]: 0.431 µM·h
Kp ([3]; brain): 0.83
Kp [14]: 0.44
AUC(0-t) at 6 h [15]: 0.956 µM·h
Fu (Plasma [4]): 7%
half-life [16]: 14.5 min
AUC (Plasma [17]): 1156 nM·h
IC50 (Cytochrome P450 1A2): > 30 µM
IC50 (Cytochrome P450 2C9): > 30 µM

IC50 (Cytochrome P450 3A4): > 10 µM
IC50 (Cytochrome P450 2C9): > 10 µM
SMILES: CN1C[C@@H]2[C@H](C1)[C@H]2CN(Cc1ccc(Cl)c(F)c1)C(=O)c1cn(C)cn1

IC50 [7]: > 30 µM
IC50 [2]: 890 nM
SMILES: O=C(NC[C@]1(CC2CC2)[C@@H]2CN(S(=O)(=O)c3cccnc3)C[C@@H]21)c1ccc(Cl)cc1Cl

IC50 [2]: 64 nM
Kp ([3]; brain and plasma, read-out: Kp): 0.7
Fu (Plasma [4]): 4%
SMILES: Cn1cnc(S(=O)(=O)N2C[C@@H]3[C@H](C2)[C@@]3(CNC(=O)c2cccc(C(F)(F)F)c2)CC2CC2)c1

Kp ([3]; brain and plasma, read-out: Kp): 0.4
fraction unbound [8]: 0.03
SMILES: Cn1cnc(S(=O)(=O)N2C[C@@H]3[C@H](C2)[C@@]3(CNC(=O)c2ccccc2Cl)CC2CC2)c1

IC50 (Cytochrome P450 3A4): > 30 µM
IC50 (Cytochrome P450 2D6): > 30 µM
IC50 [2]: 185 nM
fraction unbound [8]: 0.076
IC50 (Cytochrome P450 1A2): > 30 µM
IC50 (Cytochrome P450 2C9): > 30 µM
SMILES: Cn1cnc(S(=O)(=O)N2C[C@@H]3[C@H](C2)[C@@]3(CNC(=O)c2ccccc2C(F)(F)F)c2ccccn2)c1

IC50 [7]: > 30 µM
IC50 [2]: 230 nM
SMILES: O=C(NC[C@]1(CC2CC2)[C@@H]2CN(S(=O)(=O)CC3CC3)C[C@@H]21)c1ccc(Cl)cc1Cl

IC50 [7]: > 30 µM
IC50 [2]: > 10000 nM
SMILES: O=C(NC[C@]1(CC2CC2)[C@@H]2CN(S(=O)(=O)c3ccccc3F)C[C@@H]21)c1ccc(Cl)cc1Cl

IC50 [7]: > 30 µM
IC50 [2]: 5500 nM
SMILES: CCCCS(=O)(=O)N1C[C@@H]2[C@H](C1)[C@@]2(CNC(=O)c1ccc(Cl)cc1Cl)CC1CC1

IC50 (Cytochrome P450 3A4): > 30 µM
IC50 (Cytochrome P450 2D6): > 30 µM
IC50 [2]: 247 nM
Kp ([3]; brain): 1.1
fraction unbound [8]: 0.14
IC50 (Cytochrome P450 1A2): > 30 µM
IC50 (Cytochrome P450 2C9): > 30 µM
SMILES: Cn1cnc(S(=O)(=O)N2C[C@@H]3[C@H](C2)[C@@]3(CNC(=O)c2ccc(Cl)cc2Cl)c2ccccn2)c1
